This is an account of results in patent US11998610B2, “Conjugates and methods of using the same” (Flagship Pioneering Innovations V, Inc., priority 2018, dated 2024).

Data set [1] concerns E. coli Nissle 1917. Put plainly: Payload release in the presence of fecal matter, ClbP positive E. coli. The class given is cell-based. As to conditions: 10 μM compound, anaerobic, 37° C., 20 h, LCMS.
Data set [2] can be described thus: Stability of conjugates in Simulated Intestinal Fluid (SIF). The class given is in vitro ADME. As to conditions: simulated intestinal fluid pH 6.7 with pancreatin, 1 μM, 37° C. An outline of the steps: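 Conjugates at 1 μM (from 1 mM DMSO stock) were incubated with agitation at 37° C. in freshly made SIF: FaSSIF powder plus pancreatin in pH 6.7 phosphate buffer. Aliquots taken at T0 and at regular intervals were quenched with 1 volume acetonitrile, and LC/MS gave degradation rates.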

Data set [3] deals with E. coli BL21(DE3). The data set can be described thus: Payload release in the presence of fecal matter, ClbP negative E. coli. It is filed as cell-based. To be noted: 10 μM compound, anaerobic, 37° C., 20 h, LCMS.
In data set [4] the test system is CT26.CL25 cells. The data set can be described thus: Cell viability readout (CellTiter-Glo) with bacteria-free media. It is filed as cell-based, mouse. To be noted: 10 nM compound, CT26.CL25 cells, 72 h, CellTiter-Glo. As to the method:
Example 100: Cell-Based Assay of Bacterial Enzymes with Mammalian CT26.CL25 Mouse Colorectal Carcinoma Viability Readout
Bacteria-free media was incubated with the indicated test compound. ((R)—N1-(2-(methylamino)ethyl)-2-octanamidosuccinamide, a recognition element-linker conjugate lacking a payload, was serially diluted 1:1000 in DMSO and […] in medium+10% FBS to give a final concentration of 10 nM. Compound 35, Compound 76, Compound 77, Compound 78, Compound 79, and SN-38 were serially diluted 1:1000 in DMSO and 1:1000 in medium to give a final concentration of 10 nM, and then the bacteria-free supernatants were tested for their ability to kill mammalian cells. As an additional control, the test compound will also be incubated with bacteria-free media. The above steps can also be performed in the presence of E. coli (CFT073 ATCC 700928, Nissle 1917, or BL21 (DE3)) to effect cleavage of the conjugates of the application.
On Day 1, CT26.CL25 cells (15,000 cells/well) were seeded in triplicate into a 24 well plate and incubated overnight in 100 μL of complete medium. The reactions (bacteria or media blank) was pelleted by centrifugation, and then the supernatant was passed through a 0.2 μm sterile filter to remove residual bacteria.
On Day 2, 300 μL of a 10 nM solution of each compound in media were applied to separate wells of CT26.CL25 cells as prepared on Day 1. The cells were incubated at 37° C. for 72 h. After this point, viability was assessed using a CellTiter-Glo kit.
Binning of the compounds was achieved by measuring cell growth or arrest (e.g. remaining cells are >90% viable, >80% viable, >70% viable, >60% viable, >50% viable, >40% viable, >30% viable, >20% viable, or >10% viable).

As for `CCCCCCCCCCCCCC(=O)N[C@H](CC(N)=O)C(=O)N[C@@H](C)CCC(=O)O[C@]1(CC)C(=O)OCc2c1cc1n(c2=O)Cc2c-1nc1ccc(O)cc1c2CC` [Example 35, (S)-4,11-diethyl-9-hydroxy-3,14-dioxo-3,4,12,14-tetrahydro-1H-pyrano[3′,4′:6,7]indolizino[1,2-b]quinolin-4-yl (S)-4-((R)-4-amino-4-oxo-2-tetradecanamidobutanamido)pentanoate], in data set [1], the “% payload released in ClbP positive (Nissle 1917) at 1:1 ratio of E. coli to fecal bacteria” value is 0.9%. For the same compound, the “Assay 2 (SIF) (% @ Remaining 4 hours)” value in data set [2] was “C (>75% of the tested compound remaining)”. Moreover, the “% payload released in ClbP negative (BL21 DE3) at 1:1 ratio of E. coli to fecal bacteria” value in data set [3] is listed as 0.6%. Besides, the “Bacteria-free media (Luminescence, average of three runs)” value in data set [4] amounted to 380490.
